Substitutions are numbered along the chain they refer to.
What was measured:
[1] = biological target: T1, Muscarinic acetylcholine receptor M1 (Rattus norvegicus, UniProt P08482); assay: Positive allosteric modulation at rat muscarinic acetylcholine receptor M1 expressed in CHO cells assessed as potentiation of acetylcholine-induced calcium mobilization; format: functional, cell-based
T1 sequence (P08482 whole entry): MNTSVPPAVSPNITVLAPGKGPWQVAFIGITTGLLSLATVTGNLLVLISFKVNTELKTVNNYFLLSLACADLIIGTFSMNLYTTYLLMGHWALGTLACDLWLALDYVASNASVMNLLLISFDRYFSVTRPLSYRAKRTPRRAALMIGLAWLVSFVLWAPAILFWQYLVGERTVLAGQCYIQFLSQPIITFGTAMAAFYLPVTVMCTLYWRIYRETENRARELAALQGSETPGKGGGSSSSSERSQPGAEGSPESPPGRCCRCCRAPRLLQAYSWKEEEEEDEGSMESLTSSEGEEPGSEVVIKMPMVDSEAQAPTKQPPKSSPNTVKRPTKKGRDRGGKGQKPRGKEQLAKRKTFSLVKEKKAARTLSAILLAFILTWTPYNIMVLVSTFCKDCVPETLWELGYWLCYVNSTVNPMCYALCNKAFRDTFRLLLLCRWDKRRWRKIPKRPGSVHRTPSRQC

[2] = Brain to plasma partition coefficient in Sprague-Dawley rat at 0.20 to 0.25 mg/kg, iv administered through cassette dosing after 0.25 hrs; format: ADME, organism-based; settings: for Kp at 0.25 h: Sprague-Dawley, brain and plasma
[3] = Unbound brain to plasma partition coefficient in Sprague-Dawley rat at 0.20 to 0.25 mg/kg, iv administered through cassette dosing after 0.25 hrs; format: ADME, organism-based; settings: brain and plasma; for Kp uu at 0.25 h: read-out: K(p,uu,brain)
[4] = Fraction unbound in rat plasma; format: ADME, cell-free
[5] = Fraction unbound in human plasma; format: ADME, cell-free
CHO = assay: Selectivity ratio of EC50 for human muscarinic acetylcholine receptor M1 to EC50 for rat muscarinic acetylcholine receptor M1 expressed in CHO cells; format: cell-based
[6] = biological target: T2, Muscarinic acetylcholine receptor M1 (Rattus norvegicus) (UniProt P08482); assay: Positive allosteric modulation at rat muscarinic acetylcholine receptor M1 expressed in CHO cells assessed as potentiation of acetylcholine-induced calcium mobilization in relative to acetylcholine; format: functional, cell-based
T2 sequence (whole entry): T1 sequence (P08482 whole entry)

[7] = biological target: T3, Muscarinic acetylcholine receptor M1 (Homo sapiens, UniProt P11229); assay: Positive allosteric modulation at human muscarinic acetylcholine receptor M1 expressed in CHO cells assessed as potentiation of acetylcholine-induced calcium mobilization; format: functional, cell-based
T3 sequence (P11229 whole entry): T1 sequence (P08482 whole entry) with V5A, S254T, S309P, K320R, G337A, V413I

[8] = biological target: T3, Muscarinic acetylcholine receptor M1; assay: Positive allosteric modulation at human muscarinic acetylcholine receptor M1 assessed as effect on beta-arrestin recruitment
[9] = biological target: T3, Muscarinic acetylcholine receptor M1; assay: Positive allosteric modulation at human muscarinic acetylcholine receptor M1 assessed as effect on receptor internalization
[10] = biological target: T4, Muscarinic acetylcholine receptor M1 (Homo sapiens) (UniProt P11229); assay: Positive allosteric modulation at human muscarinic acetylcholine receptor M1 expressed in CHO cells assessed as potentiation of acetylcholine-induced calcium mobilization relative to acetylcholine; format: functional, cell-based
T4 sequence (whole entry): T1 sequence (P08482 whole entry) with V5A, S254T, S309P, K320R, G337A, V413I

[11] = biological target: T4, Muscarinic acetylcholine receptor M1 (Homo sapiens); assay: Positive allosteric modulation at human muscarinic acetylcholine receptor M1 assessed as effect on beta-arrestin recruitment relative to acetylcholine
[12] = Fraction unbound in rat brain homogenate; format: ADME, tissue-based

EC50 [1] [µM] | Kp at 0.25 h [2] | Kpuu at 0.25 h [3] | fraction unbound [4] | fraction unbound [5] | %max [6] [%] | EC50 [7] [µM] | Kp uu at 0.25 h [3] | EC50 [8] [µM] | EC50 [9] [µM] | %max [10] [%] | %max [11] [%] | fraction unbound [12] | Kp ([2]; brain, 0.25 h, BLD = below limit of detection) | SMILES | Ratio EC50 (CHO)
2.8 | 1.64 | 1.1 | 0.04 | 0.04 |  |  |  |  |  |  |  |  |  | Cn1cc2cc(-c3cc(F)c(Cn4c(=O)cnc5ncccc54)c(F)c3)ccc2n1 | 
6.1 | 3.1 | 2.7 | 0.03 | 0.03 |  |  |  |  |  |  |  |  |  | O=c1c2ccncc2ncn1Cc1c(F)cc(-c2ccc3cnccc3c2)cc1F | 
> 10 |  |  |  |  |  |  |  |  |  |  |  |  |  | Cn1cc2c(-c3cc(F)c(CN4CCn5nccc5C4=O)c(F)c3)cccc2n1 | 
4.9 | 2.16 |  | 0.01 | 0.01 | 67 | > 10 | 0.77 |  |  |  |  |  |  | Cn1cc2c(-c3cc(F)c(Cn4c(=O)cnc5ccccc54)c(F)c3)cccc2n1 | 2
1.7 | 0.35 |  | 0.08 | 0.04 | 50 | > 10 | 0.3 |  |  |  |  |  |  | Cn1cc2c(-c3cc(F)c(CN4C=CC5=NCCN5C4=O)c(F)c3)cccc2n1 | 2
3.2 | 0.3 |  |  |  | 75 | 1.9 |  | 2.6 | > 10 | 79 | 57 |  |  | Cn1cc(-c2ccc(CN3Cc4ncccc4C3=O)c(F)c2)cn1 | 3
4.7 | 0.77 |  | 0.01 | 0.01 | 73 | 5.3 | 0.6 | 0.98 | > 10 | 65 | 33 |  |  | Cn1cc2c(-c3cc(F)c(Cn4cnc5cnccc5c4=O)c(F)c3)cccc2n1 | 2
4.7 | 0.79 |  | 0.01 | 0.01 | 45 | > 10 | 0.32 |  |  |  |  |  |  | Cn1cc2c(-c3cc(F)c(Cn4cnc5ccccc5c4=O)c(F)c3)cccc2n1 | 2
1.7 | 0.4 | 0.7 | 0.06 | 0.05 | 50 |  |  |  |  |  |  | 0.098 |  | Cn1cc2cc(-c3cc(F)c(CN4CCn5nccc5C4=O)c(F)c3)ccc2n1 | 
4.3 | 0.52 |  | 0.01 | 0.01 | 52 | > 10 | 0.49 |  |  |  |  |  |  | Cn1cc2c(-c3cc(F)c(CN4CCc5ncccc5C4=O)c(F)c3)cccc2n1 | 2
5.3 |  |  | 0.04 | 0.06 |  |  |  |  |  |  |  |  | BLD | Cn1cnc2ccc(-c3cc(F)c(Cn4cnc5cnccc5c4=O)c(F)c3)cc21 | 

Reference: ChEMBL document CHEMBL3822368, “Further optimization of the M1 PAM VU0453595: Discovery of novel heterobicyclic core motifs with improved CNS penetration” (Bioorg Med Chem Lett, 2016)
